# Reference: patent US6852735B1, “Siastatin B derivatives having a glycosidase inhibitory activity and processes for producing the same” (Zaidan Hojin Biseibutsu Kagaku Kenkyu Kai, priority 1998, dated 2005)
# What was measured:
# Format in all cases: biochemical
# [1] = tested on: β-N-acetylglucosaminidase (from bovine epididymis); test: β-N-acetylglucosaminidase inhibition (Test Example 2); settings: for inhibition of N-acetylglucosaminidase, in words: summary of Table 1; for 50% inhibiory concentration (IC50) Enzyme B: β-N-acetylglucosaminidase from bovine epididymis, substrate p-nitrophenyl-N-acetyl-β-D-glucosaminide
# Experimental: (§1) Thus, 0.5 mL of 0.025M citrate-phosphate buffer (pH 4.0), 0.1 mL of the same buffer containing 10 mM p-nitro-phenyl-N-acetyl-α-D-galactosaminide dissolved therein, and 0.1 mL of either water or an aqueous solution containing as the test compound any one of the compounds of the formulae (I), (V) and (X) according to this invention were mixed with each other and pre-incubated in a 96-wells titer plate at 37° C. for 10 minutes. After the completion of the pre-incubation, to the pre-incubated mixture was added 0.01 mL of 0.025 M citrate-phosphate buffer containing α-N-acetyl-galactosaminidase originated from chicken liver (a product of Sigma Company) which was dissolved in said buffer as a glycosidase to be tested. Thereafter, the enzymatic reaction was conducted at 37° C. for 30 minutes.
# (§2) After the enzymatic reaction, to the reaction solution was added 1.0 mL of 0.3M glycine—sodium hydroxide buffer (pH 10.5), in order to terminate the enzymatic reaction. Thereafter, the absorbance [designated as value (a)] of light at 405 nm of the resulting reaction solution was measured. Concurrently, measurement was made of the absorbance [designated as value (b)] at 405 nm of the reaction solution as obtained in the control test where the enzymatic reaction was conducted without addition of the test compound. Further, measurements were made of the absorbance [designated as values (a′)] and the absorbance [[designated as values (b′)] at 405 nm of the solutions as obtained in the blank test and the control test, respectively, where the enzymatic reaction was not conducted in the assay test. The rate of inhibition to […] was calculated by the equation: [1-(a-a′)/(b-b′)]×100.
# (§3) The test results obtained are summarized as IC50 value in Table 1 below.
# This Test Example is a test example for determining the N-acetylglucosaminidase-inhibitory activity of the compound of the formula (I), (V) or (X) according to this invention.
# The evaluation of the N-acetylglucosaminidase-inhibitory activity was conducted according to a modification of the method described in the “Methods in Enzymology”, 28, p.772 (1972).
# Namely, the test was conducted in the same manner as the test for the N-acetylgalactosamnidase-inhibitory activity as described above, but with using […] (a product of Sigma Company) originated from bovine epididymis, as the glycosidase enzyme to be tested, and with using p-nitrophenyl-N-acetyl-β-D-glucosaminide as the substrate. Furthermore, absorbances of light at 405 nm were measured in the same manner as described in […]. IC50 value of the test compound capable of giving the 50% inhibition to β-N-acetyl-glucosaminidase was calculated.
# [2] = target: T1, α-D-mannosidase (from jack bean) (Canavalia ensiformis, UniProt C0HJB3); test: α-mannosidase inhibition (Test Example 5); settings: for IC50: α-D-mannosidase from jack bean, substrate p-nitrophenyl-α-D-mannoside, sodium acetate buffer pH 4.5, read-out: 50% inhibiory concentration (IC50) Enzyme G (converted); for inhibition of α-D-mannosidase, in words: summary of Table 1
# T1 sequence (C0HJB3 1-981): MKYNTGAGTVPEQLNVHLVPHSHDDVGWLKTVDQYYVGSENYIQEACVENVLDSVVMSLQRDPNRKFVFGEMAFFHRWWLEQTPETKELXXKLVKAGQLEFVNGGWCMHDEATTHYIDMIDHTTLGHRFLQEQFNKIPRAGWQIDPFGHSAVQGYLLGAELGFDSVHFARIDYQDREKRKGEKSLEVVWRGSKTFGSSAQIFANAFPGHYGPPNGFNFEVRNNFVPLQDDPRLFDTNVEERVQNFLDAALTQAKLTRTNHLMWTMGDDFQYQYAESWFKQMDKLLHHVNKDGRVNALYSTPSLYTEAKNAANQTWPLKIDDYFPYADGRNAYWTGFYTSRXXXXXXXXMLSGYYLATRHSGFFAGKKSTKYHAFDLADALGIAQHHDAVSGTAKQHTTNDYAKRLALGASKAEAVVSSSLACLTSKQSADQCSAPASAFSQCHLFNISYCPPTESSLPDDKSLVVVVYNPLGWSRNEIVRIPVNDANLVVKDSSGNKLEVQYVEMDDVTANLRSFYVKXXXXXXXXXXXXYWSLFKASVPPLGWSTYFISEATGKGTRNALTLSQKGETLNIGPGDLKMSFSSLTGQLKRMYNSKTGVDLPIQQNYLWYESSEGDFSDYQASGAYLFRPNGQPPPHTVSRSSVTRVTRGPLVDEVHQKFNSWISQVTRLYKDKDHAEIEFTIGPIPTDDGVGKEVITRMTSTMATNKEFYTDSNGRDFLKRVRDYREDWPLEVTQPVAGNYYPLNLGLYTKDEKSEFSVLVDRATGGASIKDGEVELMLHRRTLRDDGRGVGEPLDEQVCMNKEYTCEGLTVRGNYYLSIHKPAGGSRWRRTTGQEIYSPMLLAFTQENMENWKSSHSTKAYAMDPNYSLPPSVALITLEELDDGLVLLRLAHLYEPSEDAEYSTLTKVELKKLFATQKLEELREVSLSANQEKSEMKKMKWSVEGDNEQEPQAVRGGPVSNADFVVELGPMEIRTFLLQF
# Experimental: as §1, §2, §3
# This Test Example is a test example for determining the α-mannosidase or β-mannosidase-inhibitory activity of the compounds according to this invention.
# The evaluation of the β-mannosidase-inhibitory activity was conducted according to a modification of the method described in the “Journal of Biological Chemistry”, 242, p.5474 (1967).
# Namely, the test was conducted in the same manner as the test for the enzyme-inhibitory activity test described in Test Example 1, but with using α-mannosidase from jack bean or β-mannosidase from snail (both enzymes are products of Sigma Company) as the glycosidase enzyme, with using 0.05 M sodium acetate—acetate buffer (pH 4.5) as the buffer, and with using p-nitrophenyl-α-D-mannoside or p-nitrophenyl-β-D-mannoside as the substrate. Furthermore, absorbances of light were measured in the same manner as in Test Example 1. IC50 values of the test compound capable of giving the 50% inhibition to the enzymes were calculated.
# [3] = tested on: β-D-glucosidase (from almond); test: β-glucosidase inhibition (Test Example 4); settings: for inhibition of β-D-glucosidase, in words: summary of Table 1; for 50% inhibiory concentration (IC50) Enzyme E: β-D-glucosidase from almond, substrate p-nitrophenyl-β-D-glucoside
# Experimental: as §1, §2, §3
# This Test Example is a test example for determining the α-glucosidase or β-glucosidase-inhibitory activity of the compound of the formula (I), (V) or (X) according to this invention.
# The evaluation of the β-glucosidase-inhibitory activity was conducted according to a modification of the method described in the “Agricultural and Biological Chemistry”, 26, p.203 (1962).
# Namely, the test was conducted in the same manner as the test for the enzyme-inhibitory activity described in Test Example 1, but with using α-glucosidase originated from yeast or β-glucosidase originated from almond (both enzymes are products of Sigma Company) as the glycosidase enzyme, and with using p-nitro-phenyl-α-D-glucoside or p-nitrophenyl-β-D-glucoside as the substrate. Furthermore, absorbances of light were measured in the same manner as in Test Example 1, and IC50 values of the test compound capable of giving the 50% inhibition to the enzyme were calculated.
Structure (SMILES),"inhibition of N-acetylglucosaminidase, in words [1]",50% inhibiory concentration (IC50) Enzyme B [1] [µg/mL],IC50 [2] [µM],"inhibition of β-D-glucosidase, in words [3]",50% inhibiory concentration (IC50) Enzyme E [3] [µg/mL],"inhibition of α-D-mannosidase, in words [2]"
"O=C(N[C@H]1NC[C@H](CO)[C@H](O)[C@@H]1O)C(F)(F)F [Formula (I), 6-deacetamido-3-decarboxy-3-hydroxymethyl-6-trifluoroacetamido-siastain B]",inhibit strongly,22,> 387,inhibit strongly,0.14,
"CC(=O)NC1NCC(CO)C(O)C1O (stereo not drawn) [Formula (V), 3-decarboxy-4-epi-3-hydroxymethyl-siastain B]",inhibit strongly,3,318,inhibit strongly,1.4,inhibit strongly
"O=C(N[C@H]1NC[C@H](CO)[C@@H](O)[C@@H]1O)C(F)(F)F [Formula (X), 6-deacetamido-3-decarboxy-4-epi-3-hydroxymethyl-6-trifluoroacetamido-siastain B]",,>100,2.9,inhibit strongly,0.13,inhibit strongly
